Where “and” joins values, the source holds several entries; their conditions need not be identical. Equal entries are not always repeated. Where two headings read alike, the source gives them in different places.
Legend:
Test in all cases: cell-based
hNav1.4 [1] = target: T1, hNav1.4 (Homo sapiens, UniProt P35499)
hNav1.4 [2] = target: T1, hNav1.4; settings: ratio of IonWorks Quattro IC50 values
hNav1.7 = hNav1.7 (Homo sapiens, UniProt Q15858); assay type: cell-based; settings: PatchXpress; * = at high concentrations compound would wash off slowly or not at all; read-out: PX hNav1.7 Tonic IC50
Sequence of hNav1.7 (Q15858 whole entry): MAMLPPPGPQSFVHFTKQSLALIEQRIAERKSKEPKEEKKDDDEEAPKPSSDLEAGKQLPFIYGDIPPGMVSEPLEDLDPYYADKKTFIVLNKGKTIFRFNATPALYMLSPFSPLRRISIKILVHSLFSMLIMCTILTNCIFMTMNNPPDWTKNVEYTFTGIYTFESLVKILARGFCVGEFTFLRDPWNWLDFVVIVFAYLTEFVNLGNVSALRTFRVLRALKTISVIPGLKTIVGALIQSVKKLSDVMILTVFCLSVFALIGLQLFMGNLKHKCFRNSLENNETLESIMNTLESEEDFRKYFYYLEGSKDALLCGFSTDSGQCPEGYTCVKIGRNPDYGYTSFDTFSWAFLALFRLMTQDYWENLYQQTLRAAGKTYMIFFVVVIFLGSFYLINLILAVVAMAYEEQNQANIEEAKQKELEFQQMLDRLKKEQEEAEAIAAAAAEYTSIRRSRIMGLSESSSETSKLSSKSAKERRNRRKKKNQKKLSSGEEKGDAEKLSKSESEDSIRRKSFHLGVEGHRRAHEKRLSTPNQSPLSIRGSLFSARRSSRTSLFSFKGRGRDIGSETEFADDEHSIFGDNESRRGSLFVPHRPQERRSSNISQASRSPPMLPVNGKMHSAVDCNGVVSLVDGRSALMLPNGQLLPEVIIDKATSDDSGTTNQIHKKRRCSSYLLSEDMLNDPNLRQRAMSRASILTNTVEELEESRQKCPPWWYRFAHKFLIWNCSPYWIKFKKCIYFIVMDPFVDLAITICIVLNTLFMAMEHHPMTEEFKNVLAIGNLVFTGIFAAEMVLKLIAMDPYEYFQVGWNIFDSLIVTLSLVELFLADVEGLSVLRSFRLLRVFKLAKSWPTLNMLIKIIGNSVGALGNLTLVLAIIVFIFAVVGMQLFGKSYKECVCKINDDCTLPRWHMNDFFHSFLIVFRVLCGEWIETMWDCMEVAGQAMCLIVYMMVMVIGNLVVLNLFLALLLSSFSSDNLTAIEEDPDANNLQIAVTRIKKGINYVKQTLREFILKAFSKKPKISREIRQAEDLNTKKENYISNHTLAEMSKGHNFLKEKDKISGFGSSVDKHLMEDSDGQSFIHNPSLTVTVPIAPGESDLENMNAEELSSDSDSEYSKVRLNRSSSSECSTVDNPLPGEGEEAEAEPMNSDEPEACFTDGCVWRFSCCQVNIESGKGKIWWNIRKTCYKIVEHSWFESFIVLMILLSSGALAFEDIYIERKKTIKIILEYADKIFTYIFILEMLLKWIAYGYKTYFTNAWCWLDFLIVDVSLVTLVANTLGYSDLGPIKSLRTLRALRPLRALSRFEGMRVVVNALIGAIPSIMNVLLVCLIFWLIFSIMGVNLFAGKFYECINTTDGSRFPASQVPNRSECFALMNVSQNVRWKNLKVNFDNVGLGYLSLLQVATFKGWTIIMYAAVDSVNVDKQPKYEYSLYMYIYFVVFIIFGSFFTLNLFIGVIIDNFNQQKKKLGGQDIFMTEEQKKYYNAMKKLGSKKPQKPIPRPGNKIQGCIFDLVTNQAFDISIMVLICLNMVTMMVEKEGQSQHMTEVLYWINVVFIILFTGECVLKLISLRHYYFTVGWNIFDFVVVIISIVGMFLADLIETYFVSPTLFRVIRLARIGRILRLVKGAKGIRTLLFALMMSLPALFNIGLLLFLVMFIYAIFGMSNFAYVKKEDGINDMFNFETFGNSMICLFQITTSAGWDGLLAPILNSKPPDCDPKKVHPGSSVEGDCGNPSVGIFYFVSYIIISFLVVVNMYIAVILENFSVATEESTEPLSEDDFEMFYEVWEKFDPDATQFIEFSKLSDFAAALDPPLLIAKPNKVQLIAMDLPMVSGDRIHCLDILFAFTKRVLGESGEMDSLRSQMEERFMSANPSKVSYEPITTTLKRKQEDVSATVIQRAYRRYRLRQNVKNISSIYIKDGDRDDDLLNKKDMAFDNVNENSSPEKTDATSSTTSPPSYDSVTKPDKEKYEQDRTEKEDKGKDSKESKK

T1 sequence (P35499 whole entry): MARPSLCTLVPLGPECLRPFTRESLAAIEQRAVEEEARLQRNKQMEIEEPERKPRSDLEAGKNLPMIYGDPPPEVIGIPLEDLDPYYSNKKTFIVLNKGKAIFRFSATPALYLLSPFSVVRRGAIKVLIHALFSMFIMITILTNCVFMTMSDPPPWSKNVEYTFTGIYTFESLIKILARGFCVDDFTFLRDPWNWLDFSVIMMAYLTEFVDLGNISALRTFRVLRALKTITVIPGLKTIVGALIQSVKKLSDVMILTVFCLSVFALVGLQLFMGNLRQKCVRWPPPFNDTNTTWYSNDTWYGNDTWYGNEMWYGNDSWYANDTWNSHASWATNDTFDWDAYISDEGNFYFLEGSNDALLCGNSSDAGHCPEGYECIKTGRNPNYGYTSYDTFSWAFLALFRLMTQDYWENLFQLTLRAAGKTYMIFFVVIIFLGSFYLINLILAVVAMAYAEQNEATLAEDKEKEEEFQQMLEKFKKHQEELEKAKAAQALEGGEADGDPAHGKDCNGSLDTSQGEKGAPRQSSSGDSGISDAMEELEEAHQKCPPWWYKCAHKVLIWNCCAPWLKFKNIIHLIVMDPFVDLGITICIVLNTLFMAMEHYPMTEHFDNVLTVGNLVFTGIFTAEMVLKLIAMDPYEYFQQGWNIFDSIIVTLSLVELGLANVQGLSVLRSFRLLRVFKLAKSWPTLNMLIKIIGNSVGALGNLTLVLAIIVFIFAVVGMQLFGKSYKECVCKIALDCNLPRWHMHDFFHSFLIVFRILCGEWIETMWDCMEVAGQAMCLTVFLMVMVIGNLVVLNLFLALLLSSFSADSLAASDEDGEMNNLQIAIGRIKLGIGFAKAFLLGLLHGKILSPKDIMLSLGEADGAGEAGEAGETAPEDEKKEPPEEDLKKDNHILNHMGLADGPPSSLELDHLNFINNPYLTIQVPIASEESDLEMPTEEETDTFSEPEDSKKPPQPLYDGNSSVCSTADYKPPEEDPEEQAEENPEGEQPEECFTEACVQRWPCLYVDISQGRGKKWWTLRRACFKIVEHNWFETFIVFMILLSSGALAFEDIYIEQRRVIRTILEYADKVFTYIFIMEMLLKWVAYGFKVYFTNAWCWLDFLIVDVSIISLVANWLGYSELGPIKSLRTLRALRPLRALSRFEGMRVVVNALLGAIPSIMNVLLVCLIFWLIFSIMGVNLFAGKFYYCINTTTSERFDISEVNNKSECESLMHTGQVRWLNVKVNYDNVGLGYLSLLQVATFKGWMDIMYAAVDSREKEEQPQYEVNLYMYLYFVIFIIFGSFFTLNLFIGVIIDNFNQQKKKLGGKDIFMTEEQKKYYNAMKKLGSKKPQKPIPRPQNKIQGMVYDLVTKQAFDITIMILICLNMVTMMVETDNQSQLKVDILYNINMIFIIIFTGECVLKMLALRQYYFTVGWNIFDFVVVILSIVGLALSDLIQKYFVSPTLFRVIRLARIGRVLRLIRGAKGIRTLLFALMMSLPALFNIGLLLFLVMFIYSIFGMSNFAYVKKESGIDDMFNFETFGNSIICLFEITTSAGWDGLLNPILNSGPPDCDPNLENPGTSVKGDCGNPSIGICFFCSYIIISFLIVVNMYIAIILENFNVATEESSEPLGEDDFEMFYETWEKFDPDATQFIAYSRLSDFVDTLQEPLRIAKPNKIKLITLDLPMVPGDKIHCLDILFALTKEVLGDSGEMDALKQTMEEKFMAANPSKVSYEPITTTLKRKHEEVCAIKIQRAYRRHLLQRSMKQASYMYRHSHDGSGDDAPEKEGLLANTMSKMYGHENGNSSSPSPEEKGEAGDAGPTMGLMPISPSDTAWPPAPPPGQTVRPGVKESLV

Compound | Nav1.4/Nav1.7 (hNav1.4 [2]) | Nav1.4/Nav1.7 (hNav1.4 [1]; ratio of PX IC50 values) | further results
CC[C@H](C)[C@H](NC(=O)[C@@H](NC(=O)[C@H](CCCCN)NC(=O)[C@H](CCCNC(=N)N)NC(=O)[C@@H]1CSSC[C@@H]2NC(=O)[C@H](C)NC(=O)[C@H](CCCNC(=N)N)NC(=O)[C@H](CCCCN)NC(=O)[C@H](CO)NC(=O)[C@H](CC(=O)O)NC(=O)[C@@H]3CSSC[C@H](NC(=O)[C@H](CCC(=O)O)NC(=O)[C@H](CC(C)C)NC(=O)CNC(=O)[C@H](CCC(=O)O)NC(=O)[C@H](CSSC[C@H](NC(=O)[C@@H](N)Cc4ccc(O)cc4)C(=O)N[C@@H](CCC(N)=O)C(=O)N[C@@H](CCCCN)C(=O)N[C@@H](Cc4c[nH]c5ccccc45)C(=O)N[C@@H](CCSC)C(=O)N[C@@H](Cc4c[nH]c5ccccc45)C(=O)N[C@@H]([C@@H](C)O)C(=O)N3)NC2=O)C(=O)N[C@@H](CCCCN)C(=O)N[C@@H](CC(C)C)C(=O)N[C@@H](Cc2c[nH]c3ccccc23)C(=O)N1)[C@@H](C)CC)C(N)=O [SEQ ID NO: 63, [Glu20]JzTx-V(1-29)] |  |  | IC50 (hNav1.4 [1]; read-out: IC50 against hNav1.4 in the PX assay format): 1250 nM
CC[C@@H]1NC(=O)[C@H](CC(C)C)NC(=O)CNC(=O)[C@H](CCC(=O)O)NC(=O)[C@@H]2CSSC[C@H](NC(=O)[C@@H](N)Cc3ccc(O)cc3)C(=O)N[C@@H](CCC(N)=O)C(=O)N[C@@H](CCCCN)C(=O)N[C@@H](Cc3c[nH]c4ccccc34)C(=O)N[C@@H](CCSC)C(=O)N[C@@H](Cc3c[nH]c4ccccc34)C(=O)N[C@@H]([C@@H](C)O)C(=O)N[C@H]3CSSC[C@H](NC1=O)C(=O)N[C@@H](CCCCN)C(=O)N[C@@H](CC(C)C)C(=O)N[C@@H](Cc1c[nH]c4ccccc14)C(=O)N[C@H](C(=O)N[C@@H](CCCNC(=N)N)C(=O)N[C@@H](CCCCN)C(=O)N[C@H](C(=O)N[C@H](C(N)=O)[C@@H](C)CC)[C@@H](C)CC)CSSC[C@H](NC(=O)[C@H](C)NC(=O)[C@H](CCCNC(=N)N)NC(=O)[C@H](CCCCN)NC(=O)[C@H](CO)NC(=O)[C@H](CC(=O)O)NC3=O)C(=O)N2 [compound 117] | 19 |  | 
CC[C@H](NC(=O)[C@H](CCCCN)NC(=O)[C@H](CCCNC(=N)N)NC(=O)[C@@H]1CSSC[C@@H]2NC(=O)[C@H](C)NC(=O)[C@H](CCCNC(=N)N)NC(=O)[C@H](CCCCN)NC(=O)[C@H](CO)NC(=O)[C@H](CC(=O)O)NC(=O)[C@@H]3CSSC[C@H](NC(=O)[C@H](CCC(=O)O)NC(=O)[C@H](CC(C)C)NC(=O)CNC(=O)[C@H](CCC(=O)O)NC(=O)[C@H](CSSC[C@H](NC(=O)[C@@H](N)Cc4ccc(O)cc4)C(=O)N[C@@H](CCC(N)=O)C(=O)N[C@@H](CCCCN)C(=O)N[C@@H](Cc4c[nH]c5ccccc45)C(=O)N[C@@H](CCSC)C(=O)N[C@@H](Cc4c[nH]c5ccccc45)C(=O)N[C@@H]([C@@H](C)O)C(=O)N3)NC2=O)C(=O)N[C@@H](CCCCN)C(=O)N[C@@H](CC(C)C)C(=O)N[C@@H](Cc2c[nH]c3ccccc23)C(=O)N1)C(=O)N[C@H](C(N)=O)[C@@H](C)CC [compound 130] | 29 and 24 |  | 
CCCC[C@@H]1NC(=O)[C@H](Cc2c[nH]c3ccccc23)NC(=O)[C@H](CCCCN)NC(=O)[C@H](CCC(N)=O)NC(=O)[C@@H](NC(=O)[C@H](Cc2ccc(O)cc2)NC(=O)[C@@H](N)Cc2cn(CCCOCCOCCOCCOCCOCCOCCOCCOCCOCCOCCN)nn2)CSSC[C@@H]2NC(=O)[C@@H]3CSSC[C@@H](C(=O)N[C@@H](CCCNC(=N)N)C(=O)N[C@@H](CCCCN)C(=O)N[C@H](C(=O)N[C@H](C(N)=O)[C@@H](C)CC)[C@@H](C)CC)NC(=O)[C@H](Cc4c[nH]c5ccccc45)NC(=O)[C@H](CC(C)C)NC(=O)[C@H](CCCCN)NC(=O)[C@H](CSSC[C@H](NC(=O)[C@H]([C@@H](C)O)NC(=O)[C@H](Cc4c[nH]c5ccccc45)NC1=O)C(=O)N[C@@H](CC(=O)O)C(=O)N[C@@H](CO)C(=O)N[C@@H](CCCCN)C(=O)N[C@@H](CCCNC(=N)N)C(=O)N[C@@H](C)C(=O)N3)NC(=O)[C@H](CCCNC(=N)N)NC(=O)[C@H](CC(C)C)NC(=O)CNC(=O)[C@H](CCC(=O)O)NC2=O [compound 247] | 2 | 1 | 
CCCC[C@@H]1NC(=O)[C@H](Cc2c[nH]c3ccccc23)NC(=O)[C@H](CCCCN)NC(=O)[C@H](CCC(N)=O)NC(=O)[C@@H](NC(=O)[C@@H](N)Cc2cn(CCCOCCOCCOCCOCCOCCOCCOCCOCCOCCOCCN)nn2)CSSC[C@@H]2NC(=O)[C@@H]3CSSC[C@@H](C(=O)N[C@@H](CCCNC(=N)N)C(=O)N[C@@H](CCCCN)C(=O)N[C@H](C(=O)N[C@H](C(N)=O)[C@@H](C)CC)[C@@H](C)CC)NC(=O)[C@H](Cc4c[nH]c5ccccc45)NC(=O)[C@H](CC(C)C)NC(=O)[C@H](CCCCN)NC(=O)[C@H](CSSC[C@H](NC(=O)[C@H]([C@@H](C)O)NC(=O)[C@H](Cc4c[nH]c5ccccc45)NC1=O)C(=O)N[C@@H](CC(=O)O)C(=O)N[C@@H](CO)C(=O)N[C@@H](CCCCN)C(=O)N[C@@H](CCCNC(=N)N)C(=O)N[C@@H](C)C(=O)N3)NC(=O)[C@H](CCCNC(=N)N)NC(=O)[C@H](CC(C)C)NC(=O)CNC(=O)[C@H](CCC(=O)O)NC2=O [compound 248] | 4 and 3 | 15 | 
CCCC[C@@H]1NC(=O)[C@H](Cc2c[nH]c3ccccc23)NC(=O)[C@H](CCCCN)NC(=O)[C@H](CCC(N)=O)NC(=O)[C@@H](NC(=O)[C@@H](N)Cc2ccc(O)cc2)CSSC[C@@H]2NC(=O)[C@@H]3CSSC[C@@H](C(=O)N[C@@H](CCCNC(=N)N)C(=O)N[C@@H](CCCCN)C(=O)N[C@H](C(=O)N[C@@H](Cc4cn(CCCOCCOCCOCCOCCOCCOCCOCCOCCOCCOCCN)nn4)C(N)=O)[C@@H](C)CC)NC(=O)[C@H](Cc4c[nH]c5ccccc45)NC(=O)[C@H](CC(C)C)NC(=O)[C@H](CCCCN)NC(=O)[C@H](CSSC[C@H](NC(=O)[C@H]([C@@H](C)O)NC(=O)[C@H](Cc4c[nH]c5ccccc45)NC1=O)C(=O)N[C@@H](CC(=O)O)C(=O)N[C@@H](CO)C(=O)N[C@@H](CCCCN)C(=O)N[C@@H](CCCNC(=N)N)C(=O)N[C@@H](C)C(=O)N3)NC(=O)[C@H](CCCNC(=N)N)NC(=O)[C@H](CC(C)C)NC(=O)CNC(=O)[C@H](CCC(=O)O)NC2=O [compound 270] | 2 |  | 
CCCC[C@@H]1NC(=O)[C@H](Cc2c[nH]c3ccccc23)NC(=O)[C@H](CCCCN)NC(=O)[C@H](CCC(N)=O)NC(=O)[C@@H](NC(=O)[C@H](Cc2ccc(O)cc2)NC(=O)[C@H](C)N)CSSC[C@@H]2NC(=O)[C@@H]3CSSC[C@@H](C(=O)N[C@@H](CCCNC(=N)N)C(=O)N[C@@H](CCCCN)C(=O)N[C@H](C(=O)N[C@H](C(N)=O)[C@@H](C)CC)[C@@H](C)CC)NC(=O)[C@H](Cc4c[nH]c5ccccc45)NC(=O)[C@H](CC(C)C)NC(=O)[C@H](CCCCN)NC(=O)[C@H](CSSC[C@H](NC(=O)[C@H]([C@@H](C)O)NC(=O)[C@H](Cc4c[nH]c5ccccc45)NC1=O)C(=O)N[C@@H](CC(=O)O)C(=O)N[C@@H](CO)C(=O)N[C@@H](CCCCN)C(=O)N[C@@H](CCCNC(=N)N)C(=O)N[C@@H](C)C(=O)N3)NC(=O)[C@H](CCCNC(=N)N)NC(=O)[C@H](CC(C)C)NC(=O)CNC(=O)[C@H](CCC(=O)O)NC2=O [compound 357] |  |  | IC50 (hNav1.7): 0.307 nM
C#CC[C@@H]1NC(=O)[C@@H]2CSSC[C@H](NC(=O)[C@H](Cc3ccc(O)cc3)NC(=O)[C@@H](N)CC#N)C(=O)N[C@@H](CCC(N)=O)C(=O)N[C@@H](CCCCN)C(=O)N[C@@H](Cc3c[nH]c4ccccc34)C(=O)N[C@@H](CCCC)C(=O)N[C@@H](Cc3c[nH]c4ccccc34)C(=O)N[C@@H]([C@@H](C)O)C(=O)N[C@H]3CSSC[C@H](NC(=O)[C@H](CCC(=O)O)NC(=O)[C@H](CC(C)C)NC(=O)CNC1=O)C(=O)N[C@@H](CCCCN)C(=O)N[C@@H](CC(C)C)C(=O)N[C@@H](Cc1c[nH]c4ccccc14)C(=O)N[C@H](C(=O)N[C@@H](CCCNC(=N)N)C(=O)N[C@@H](CCCCN)C(=O)N[C@H](C(=O)N[C@H](C(N)=O)[C@@H](C)CC)[C@@H](C)CC)CSSC[C@H](NC(=O)[C@H](C)NC(=O)[C@H](CCCNC(=N)N)NC(=O)[C@H](CCCCN)NC(=O)[C@H](CO)NC(=O)[C@H](CC(=O)O)NC3=O)C(=O)N2 [compound 396] |  |  | Nav1.4/Nav1.7 (hNav1.4 [1]; ratio of PX tonic IC50 values): 98
C#CC[C@H](N)C(=O)NCCCC[C@@H]1NC(=O)[C@H](CCCNC(=N)N)NC(=O)[C@H](CCCCN)NC(=O)[C@H](CO)NC(=O)[C@H](CC(=O)O)NC(=O)[C@@H]2CSSC[C@@H]3NC(=O)[C@H](CCCNC(=N)N)NC(=O)[C@H](CC(C)C)NC(=O)CNC(=O)[C@H](CCC(=O)O)NC(=O)[C@H](CSSC[C@H](NC(=O)[C@H](Cc4ccc(O)cc4)NC(=O)[C@@H](N)CCC)C(=O)N[C@@H](CCC(N)=O)C(=O)N[C@@H](CCCCN)C(=O)N[C@@H](Cc4c[nH]c5ccccc45)C(=O)N[C@@H](CCCC)C(=O)N[C@@H](Cc4c[nH]c5ccccc45)C(=O)N[C@@H]([C@@H](C)O)C(=O)N2)NC(=O)[C@H](CSSC[C@@H](C(=O)N[C@@H](CCCNC(=N)N)C(=O)N[C@@H](CCCCN)C(=O)N[C@H](C(=O)N[C@H](C(N)=O)[C@@H](C)CC)[C@@H](C)CC)NC(=O)[C@H](Cc2c[nH]c4ccccc24)NC(=O)[C@H](CC(C)C)NC(=O)[C@H](CCCCN)NC3=O)NC1=O [compound 431] |  |  | IC50 (hNav1.4 [1]; PatchXpress, tonic block, read-out: PX hNav1.4 Tonic IC50): 20.5 nM; Nav1.4/Nav1.7 (hNav1.4 [1]; ratio of PX tonic IC50 values): 13
CCC[C@H](N)C(=O)N[C@@H](Cc1ccc(O)cc1)C(=O)N[C@H]1CSSC[C@@H]2NC(=O)[C@@H]3CSSC[C@@H](C(=O)N[C@@H](CCCNC(=N)N)C(=O)N[C@@H](CCCCN)C(=O)N[C@H](C(=O)N[C@H](C(N)=O)[C@@H](C)CC)[C@@H](C)CC)NC(=O)[C@H](Cc4c[nH]c5ccccc45)NC(=O)[C@H](CC(C)C)NC(=O)[C@H](CCCCN)NC(=O)[C@H](CSSC[C@H](NC(=O)[C@H]([C@@H](C)O)NC(=O)[C@H](Cc4c[nH]c5ccccc45)NC(=O)[C@H](CC(C)C)NC(=O)[C@H](Cc4c[nH]c5ccccc45)NC(=O)[C@H](CCCCN)NC(=O)[C@H](CCC(N)=O)NC1=O)C(=O)N[C@@H](CC(=O)O)C(=O)N[C@@H](CO)C(=O)N[C@@H](CCCCN)C(=O)N[C@@H](CCCNC(=N)N)C(=O)N[C@@H](CCCCNC(=O)[C@@H](N)Cc1cn(CCOCCOCCOCCOCCOCCOCCOCCOCCOCCOCCN)nn1)C(=O)N3)NC(=O)[C@H](CCCNC(=N)N)NC(=O)[C@H](CC(C)C)NC(=O)CNC(=O)[C@H](CCC(=O)O)NC2=O [compound 446] |  | 11 | 

— patent US9636418B2 (priority 2013, dated 2017)
